{"source": "patent US7763662B2", "about": "“Use of C2-substituted indan-1-ol systems for preparing medicaments for the prophylaxis or treatment of obesity” (Sanofi-Aventis Deutschland GmbH, priority 2001, dated 2010)", "key": {"female NMRI mice": {"system": "female NMRI mice", "assay": "Anorectic action: cumulative evaporated milk consumption after 24 h feed removal", "type": "in vivo", "settings": "ip or po (route not specified), N=5; for Reduction in cumulative milk consumption as % of the control: compared with vehicle-treated control animals; for cumulative milk consumption by treated animals: milk offered 30 min after administration, monitored for 7 hours", "protocol": "The activity of the compounds was assayed as follows:\nThe anorectic action was tested on female NMRI mice. After removal of feed for 24 hours, the preparation to be tested was administered intraperitoneally (ip) or by gavage (po). The animals were housed singly and, with free access to drinking water, they were offered evaporated milk 30 minutes after administration of the preparation. The consumption of evaporated milk was determined and the general behavior of the animals was monitored every half an hour for 7 hours. The measured milk consumption was compared to that of vehicle-treated control animals."}}}
{"smiles": "CS(=O)(=O)C1Cc2cc(Cl)ccc2C1O", "note": "(stereo not shown) [Example 1, 5-Chloro-2-methylsulfonylindan-1-ol]", "values": [{"measurement": "melting point", "result": 163, "unit": "°C"}, {"measurement": "Reduction in cumulative milk consumption as % of the control", "setting": "female NMRI mice; dose 20 mg/kg", "result": "50 % of the control"}, {"measurement": "cumulative milk consumption by treated animals", "setting": "female NMRI mice; dose 20 mg/kg", "result": "5/1.94 ml"}]}
{"smiles": "CCS(=O)(=O)C1Cc2cc(Cl)ccc2C1O", "note": "(stereo not shown) [Example 3, 5-Chloro-2-ethanesulfonylindan-1-ol]", "values": [{"measurement": "melting point", "result": 145, "unit": "°C"}]}
{"smiles": "CSC1Cc2cc(Cl)ccc2C1O", "note": "(stereo not shown) (hydrate or solvate) [Example 4, 5-Chloro-2-methylsulfanylindan-1-ol]", "values": [{"measurement": "melting point", "result": 197.1, "unit": "°C"}]}
{"smiles": "CSC1Cc2cc(Cl)ccc2C1O", "note": "(stereo not shown) [Example 4, 5-Chloro-2-methylsulfanylindan-1-ol]", "values": [{"measurement": "Reduction in cumulative milk consumption as % of the control", "setting": "female NMRI mice; dose 50 mg/kg", "result": "85 % of the control"}, {"measurement": "cumulative milk consumption by treated animals", "setting": "female NMRI mice; dose 50 mg/kg", "result": "5/0.70 ml"}]}
